Source: patent US20180020676A1 (priority 2014, published 2018)

Tests used:
[1] = test system: bean rust (Uromyces appendiculatus); assay: Greenhouse control of bean rust versus […] OPTIMUM and chemical agents; type: in vivo; details: bean plants, 200 k conidia/ml, ten days after infection; biologicals 1×10^8 cfu/ml, Tebuconazole 50 g a.i./ha, Chlorothalonil 500 g a.i./ha; 0.1875% TACTIC in all
[2] = test system: bean rust (Uromyces appendiculatus); assay: Greenhouse control of bean rust at varying rates of inoculation; type: in vivo; details: 200K conidia/ml, ten days after infection, biologicals 1×10^8 cfu/ml, Tebuconazole 50 g a.i./ha
Protocol: The formulations and treatment methods used were the same as described for the previous experiment. One day after treatment application, the test plants were infected with bean rust (Uromyces appendiculatus) at an inoculation rate ranging from 50 k to 300 k conidia/ml. Ten days after infection with bean rust (Uromyces appendiculatus) the percent of disease control was evaluated for each of: […]

## CC(C)(C)C(O)(CCc1ccc(Cl)cc1)Cn1cncn1 (stereo not drawn) [Tebuconazole]
[1]
  Percent Disease Control: 100%
[2]
  Percent Disease Control: 100 a %

## N#Cc1c(Cl)c(Cl)c(Cl)c(C#N)c1Cl [Chlorothalonil]
[1]
  Percent Disease Control: 100%
